Tests used:
[1] = tested on: Epidermal growth factor receptor (Homo sapiens), P00533 [L858R]; conditions: Compound concentration 1000.0 nM
[2] = target: Ephrin type-A receptor 1 (Homo sapiens) (UniProt P21709); conditions: Compound concentration 1000.0 nM
[3] = tested on: Phosphatidylinositol 4,5-bisphosphate 3-kinase catalytic subunit alpha isoform (Homo sapiens), P42336 [Q546K]; conditions: Compound concentration 1000.0 nM
[4] = target: Tyrosine-protein kinase TXK (Homo sapiens) (UniProt P42681); conditions: Compound concentration 1000.0 nM
[5] = target: 1-phosphatidylinositol 3-phosphate 5-kinase (Homo sapiens) (UniProt Q9Y2I7); conditions: Compound concentration 1000.0 nM
[6] = target: Serine/threonine-protein kinase OSR1 (Homo sapiens) (UniProt O95747); conditions: Compound concentration 1000.0 nM
[7] = target: Tyrosine-protein kinase receptor TYRO3 (Homo sapiens) (UniProt Q06418); conditions: Compound concentration 1000.0 nM
[8] = tested on: Epidermal growth factor receptor (Homo sapiens), P00533 [G719C]; conditions: Compound concentration 1000.0 nM
[9] = target: Dual specificity mitogen-activated protein kinase kinase 3 (Homo sapiens) (UniProt P46734); conditions: Compound concentration 1000.0 nM
[10] = target: Tyrosine-protein kinase CSK (Homo sapiens) (UniProt P41240); conditions: Compound concentration 1000.0 nM
[11] = tested on: Tyrosine-protein kinase ABL1 (Homo sapiens), P00519 [F317I]; conditions: Compound concentration 1000.0 nM
Sequence of Tyrosine-protein kinase ABL1 (Homo sapiens), P00519 [F317I] (P00519 whole entry F317I): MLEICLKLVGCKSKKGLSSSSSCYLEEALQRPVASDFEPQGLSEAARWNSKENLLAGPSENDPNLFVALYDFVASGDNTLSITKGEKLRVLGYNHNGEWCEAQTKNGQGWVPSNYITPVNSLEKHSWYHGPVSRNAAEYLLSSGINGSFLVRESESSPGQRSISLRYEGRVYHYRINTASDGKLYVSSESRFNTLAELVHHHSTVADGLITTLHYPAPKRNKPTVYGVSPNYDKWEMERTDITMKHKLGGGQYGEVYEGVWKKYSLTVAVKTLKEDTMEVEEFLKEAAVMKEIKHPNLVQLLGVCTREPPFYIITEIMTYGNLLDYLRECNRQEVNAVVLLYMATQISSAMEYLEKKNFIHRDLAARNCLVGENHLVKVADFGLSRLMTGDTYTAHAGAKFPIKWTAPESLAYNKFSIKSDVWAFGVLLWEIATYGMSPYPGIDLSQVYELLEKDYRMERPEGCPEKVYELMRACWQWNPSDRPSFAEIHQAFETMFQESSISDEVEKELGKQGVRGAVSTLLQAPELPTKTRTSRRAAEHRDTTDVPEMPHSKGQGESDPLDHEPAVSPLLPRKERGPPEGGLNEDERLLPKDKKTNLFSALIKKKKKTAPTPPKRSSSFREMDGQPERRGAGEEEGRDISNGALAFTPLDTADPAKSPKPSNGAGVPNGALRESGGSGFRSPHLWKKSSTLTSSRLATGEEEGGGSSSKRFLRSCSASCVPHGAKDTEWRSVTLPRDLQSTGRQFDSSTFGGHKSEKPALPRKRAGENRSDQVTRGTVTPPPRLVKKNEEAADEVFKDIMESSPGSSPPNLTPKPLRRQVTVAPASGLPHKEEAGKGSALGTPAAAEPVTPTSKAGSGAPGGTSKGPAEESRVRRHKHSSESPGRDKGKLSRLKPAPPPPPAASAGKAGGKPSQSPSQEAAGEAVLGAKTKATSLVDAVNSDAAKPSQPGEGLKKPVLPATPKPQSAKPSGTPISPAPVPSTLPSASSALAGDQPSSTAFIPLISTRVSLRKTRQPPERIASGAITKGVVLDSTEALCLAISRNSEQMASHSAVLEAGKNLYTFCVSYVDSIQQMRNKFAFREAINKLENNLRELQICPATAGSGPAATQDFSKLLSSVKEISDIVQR

[12] = target: Ribosomal protein S6 kinase beta-1 (Homo sapiens) (UniProt P23443); conditions: Compound concentration 1000.0 nM
Sequence of Ribosomal protein S6 kinase beta-1 (Homo sapiens) (P23443 whole entry, looked up): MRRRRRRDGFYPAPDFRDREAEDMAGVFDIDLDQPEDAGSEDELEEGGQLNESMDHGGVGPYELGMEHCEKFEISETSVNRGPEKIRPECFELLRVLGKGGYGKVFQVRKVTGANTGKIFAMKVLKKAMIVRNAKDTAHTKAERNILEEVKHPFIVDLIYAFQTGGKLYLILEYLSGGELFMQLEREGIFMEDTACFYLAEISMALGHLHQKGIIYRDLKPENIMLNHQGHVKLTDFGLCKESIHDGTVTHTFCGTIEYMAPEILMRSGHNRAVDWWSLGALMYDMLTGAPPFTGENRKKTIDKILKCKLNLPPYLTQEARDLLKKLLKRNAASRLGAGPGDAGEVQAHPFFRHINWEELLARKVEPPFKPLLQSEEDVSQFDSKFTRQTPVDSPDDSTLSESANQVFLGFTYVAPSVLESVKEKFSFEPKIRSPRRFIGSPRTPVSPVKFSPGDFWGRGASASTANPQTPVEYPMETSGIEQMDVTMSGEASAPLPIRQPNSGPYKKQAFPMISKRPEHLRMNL

[13] = target: Maternal embryonic leucine zipper kinase (Homo sapiens) (UniProt Q14680); conditions: Compound concentration 1000.0 nM
[14] = target: Rho-associated protein kinase 1 (Homo sapiens) (UniProt Q13464); conditions: Compound concentration 1000.0 nM
Sequence of Rho-associated protein kinase 1 (Homo sapiens) (Q13464 2-1354 limits assumed): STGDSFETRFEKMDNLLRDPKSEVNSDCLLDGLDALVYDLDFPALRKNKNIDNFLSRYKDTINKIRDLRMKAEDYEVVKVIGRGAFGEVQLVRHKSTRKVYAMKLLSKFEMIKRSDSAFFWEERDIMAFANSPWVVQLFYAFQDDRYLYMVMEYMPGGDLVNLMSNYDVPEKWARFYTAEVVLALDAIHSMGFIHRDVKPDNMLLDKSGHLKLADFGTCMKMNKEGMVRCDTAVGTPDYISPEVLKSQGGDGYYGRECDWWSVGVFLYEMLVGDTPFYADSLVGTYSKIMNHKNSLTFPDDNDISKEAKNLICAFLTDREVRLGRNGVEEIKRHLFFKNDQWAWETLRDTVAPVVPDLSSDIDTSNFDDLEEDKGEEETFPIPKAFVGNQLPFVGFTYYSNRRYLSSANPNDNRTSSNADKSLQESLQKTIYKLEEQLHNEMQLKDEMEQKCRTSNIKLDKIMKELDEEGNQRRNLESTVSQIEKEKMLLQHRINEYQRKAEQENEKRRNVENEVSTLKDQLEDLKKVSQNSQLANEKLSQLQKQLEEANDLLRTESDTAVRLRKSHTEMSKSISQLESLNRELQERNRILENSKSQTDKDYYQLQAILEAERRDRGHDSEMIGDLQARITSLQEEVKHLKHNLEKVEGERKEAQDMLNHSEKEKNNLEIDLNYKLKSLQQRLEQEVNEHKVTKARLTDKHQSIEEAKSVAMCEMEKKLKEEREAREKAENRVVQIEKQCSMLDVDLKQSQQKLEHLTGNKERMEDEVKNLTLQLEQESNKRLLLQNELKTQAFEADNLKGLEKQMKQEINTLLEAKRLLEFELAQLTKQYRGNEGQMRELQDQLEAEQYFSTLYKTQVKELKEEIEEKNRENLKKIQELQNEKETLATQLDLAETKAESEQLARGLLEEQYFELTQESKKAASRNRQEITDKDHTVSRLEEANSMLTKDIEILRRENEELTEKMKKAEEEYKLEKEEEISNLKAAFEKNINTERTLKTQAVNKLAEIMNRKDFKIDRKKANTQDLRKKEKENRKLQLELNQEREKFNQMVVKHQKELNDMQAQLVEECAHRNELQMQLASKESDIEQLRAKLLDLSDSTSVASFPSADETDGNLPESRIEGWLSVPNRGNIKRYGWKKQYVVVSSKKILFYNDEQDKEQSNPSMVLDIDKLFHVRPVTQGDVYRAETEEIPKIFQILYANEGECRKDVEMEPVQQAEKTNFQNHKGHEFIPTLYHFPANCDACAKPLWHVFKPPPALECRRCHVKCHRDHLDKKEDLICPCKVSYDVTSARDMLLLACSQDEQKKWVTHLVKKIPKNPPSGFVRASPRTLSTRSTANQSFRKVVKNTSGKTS

[15] = target: SRSF protein kinase 1 (Homo sapiens) (UniProt Q96SB4); conditions: Compound concentration 1000.0 nM
[16] = target: Tyrosine-protein kinase receptor UFO (Homo sapiens) (UniProt P30530); conditions: Compound concentration 1000.0 nM
[17] = target: MAP kinase-interacting serine/threonine-protein kinase 2 (Homo sapiens) (UniProt Q9HBH9); conditions: Compound concentration 1000.0 nM
[18] = target: Mitogen-activated protein kinase 6 (Homo sapiens) (UniProt Q16659); conditions: Compound concentration 1000.0 nM
[19] = target: Serine/threonine-protein kinase MRCK beta (Homo sapiens) (UniProt Q9Y5S2); conditions: Compound concentration 1000.0 nM
[20] = target: Calcium/calmodulin-dependent protein kinase type 1D (Homo sapiens) (UniProt Q8IU85); conditions: Compound concentration 1000.0 nM
Sequence of Calcium/calmodulin-dependent protein kinase type 1D (Homo sapiens) (Q8IU85 whole entry, looked up): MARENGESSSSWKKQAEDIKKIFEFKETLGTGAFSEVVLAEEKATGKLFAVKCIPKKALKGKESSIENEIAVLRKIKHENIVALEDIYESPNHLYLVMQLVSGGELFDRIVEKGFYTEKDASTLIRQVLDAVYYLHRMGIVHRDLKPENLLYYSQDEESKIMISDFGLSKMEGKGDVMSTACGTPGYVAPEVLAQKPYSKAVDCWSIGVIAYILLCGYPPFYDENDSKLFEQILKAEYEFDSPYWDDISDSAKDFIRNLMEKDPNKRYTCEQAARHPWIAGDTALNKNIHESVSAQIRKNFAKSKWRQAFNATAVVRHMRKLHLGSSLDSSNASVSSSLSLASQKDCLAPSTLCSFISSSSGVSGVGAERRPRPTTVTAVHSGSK

[21] = target: 5-hydroxytryptamine receptor 1D (Homo sapiens) (UniProt P28221); conditions: Compound concentration 10.0 uM
[22] = tested on: Epidermal growth factor receptor (Homo sapiens), P00533 [L858R,T790M]; conditions: Compound concentration 1000.0 nM
[23] = target: Ribosomal protein S6 kinase alpha-1 (Homo sapiens) (UniProt Q15418); conditions: Compound concentration 1000.0 nM
[24] = target: Focal adhesion kinase 1 (Homo sapiens) (UniProt Q05397); conditions: Compound concentration 1000.0 nM
[25] = tested on: Hepatocyte growth factor receptor (Homo sapiens), P08581 [Y1235D]; conditions: Compound concentration 1000.0 nM
[26] = target: Casein kinase I isoform gamma-2 (Homo sapiens) (UniProt P78368); conditions: Compound concentration 1000.0 nM
[27] = target: Serine/threonine-protein kinase PknB (Mycobacterium tuberculosis) (UniProt P9WI81); conditions: Compound concentration 1000.0 nM
[28] = target: Ephrin type-B receptor 3 (Homo sapiens) (UniProt P54753); conditions: Compound concentration 1000.0 nM
[29] = target: Calcium/calmodulin-dependent protein kinase type IV (Homo sapiens) (UniProt Q16566); conditions: Compound concentration 1000.0 nM
[30] = target: Serine/threonine-protein kinase Chk2 (Homo sapiens) (UniProt O96017); conditions: Compound concentration 1000.0 nM
[31] = target: LIM domain kinase 2 (Homo sapiens) (UniProt P53671); conditions: Compound concentration 1000.0 nM
[32] = tested on: Mast/stem cell growth factor receptor Kit (Homo sapiens), P10721 [L576P]; conditions: Compound concentration 1000.0 nM
[33] = target: Serine/threonine-protein kinase RIO3 (Homo sapiens) (UniProt O14730); conditions: Compound concentration 1000.0 nM
[34] = target: Tyrosine-protein kinase JAK3 (Homo sapiens) (UniProt P52333); conditions: Compound concentration 1000.0 nM
[35] = target: Dual serine/threonine and tyrosine protein kinase (Homo sapiens) (UniProt Q6XUX3); conditions: Compound concentration 1000.0 nM
[36] = target: Vascular endothelial growth factor receptor 3 (Homo sapiens) (UniProt P35916); conditions: Compound concentration 1000.0 nM
[37] = target: Tyrosine-protein kinase Fgr (Homo sapiens) (UniProt P09769); conditions: Compound concentration 1000.0 nM
[38] = target: Mitogen-activated protein kinase kinase kinase 14 (Homo sapiens) (UniProt Q99558); conditions: Compound concentration 1000.0 nM
[39] = target: Serine/threonine-protein kinase TNNI3K (Homo sapiens) (UniProt Q59H18); conditions: Compound concentration 1000.0 nM
Sequence of Serine/threonine-protein kinase TNNI3K (Homo sapiens) (Q59H18 whole entry, canonical isoform): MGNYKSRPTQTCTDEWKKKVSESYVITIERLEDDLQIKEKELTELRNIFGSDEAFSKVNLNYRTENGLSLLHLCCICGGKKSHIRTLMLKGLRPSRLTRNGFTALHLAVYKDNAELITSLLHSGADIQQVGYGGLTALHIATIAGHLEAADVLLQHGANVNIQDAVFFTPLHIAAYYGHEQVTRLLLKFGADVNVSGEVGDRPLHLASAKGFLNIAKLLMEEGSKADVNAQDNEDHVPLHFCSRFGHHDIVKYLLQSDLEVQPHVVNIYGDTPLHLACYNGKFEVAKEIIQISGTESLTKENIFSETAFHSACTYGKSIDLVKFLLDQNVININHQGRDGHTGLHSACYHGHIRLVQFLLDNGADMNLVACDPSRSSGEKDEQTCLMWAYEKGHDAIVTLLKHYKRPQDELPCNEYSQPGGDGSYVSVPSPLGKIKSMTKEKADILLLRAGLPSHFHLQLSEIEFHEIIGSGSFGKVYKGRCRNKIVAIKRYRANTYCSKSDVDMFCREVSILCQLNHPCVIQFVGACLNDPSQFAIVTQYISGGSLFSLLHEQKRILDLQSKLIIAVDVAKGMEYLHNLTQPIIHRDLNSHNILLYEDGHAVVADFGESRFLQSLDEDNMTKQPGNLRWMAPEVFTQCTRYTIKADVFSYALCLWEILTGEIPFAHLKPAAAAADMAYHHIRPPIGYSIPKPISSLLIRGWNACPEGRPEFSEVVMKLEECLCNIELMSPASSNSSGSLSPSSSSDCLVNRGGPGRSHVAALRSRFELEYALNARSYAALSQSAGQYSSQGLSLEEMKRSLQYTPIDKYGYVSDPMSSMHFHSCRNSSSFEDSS

[40] = target: Phosphorylase b kinase gamma catalytic chain, skeletal muscle/heart isoform (Homo sapiens) (UniProt Q16816); conditions: Compound concentration 1000.0 nM
[41] = target: Mitogen-activated protein kinase kinase kinase 12 (Homo sapiens) (UniProt Q12852); conditions: Compound concentration 1000.0 nM
[42] = target: Activin receptor type-2A (Homo sapiens) (UniProt P27037); conditions: Compound concentration 1000.0 nM
Sequence of Activin receptor type-2A (Homo sapiens) (P27037 whole entry): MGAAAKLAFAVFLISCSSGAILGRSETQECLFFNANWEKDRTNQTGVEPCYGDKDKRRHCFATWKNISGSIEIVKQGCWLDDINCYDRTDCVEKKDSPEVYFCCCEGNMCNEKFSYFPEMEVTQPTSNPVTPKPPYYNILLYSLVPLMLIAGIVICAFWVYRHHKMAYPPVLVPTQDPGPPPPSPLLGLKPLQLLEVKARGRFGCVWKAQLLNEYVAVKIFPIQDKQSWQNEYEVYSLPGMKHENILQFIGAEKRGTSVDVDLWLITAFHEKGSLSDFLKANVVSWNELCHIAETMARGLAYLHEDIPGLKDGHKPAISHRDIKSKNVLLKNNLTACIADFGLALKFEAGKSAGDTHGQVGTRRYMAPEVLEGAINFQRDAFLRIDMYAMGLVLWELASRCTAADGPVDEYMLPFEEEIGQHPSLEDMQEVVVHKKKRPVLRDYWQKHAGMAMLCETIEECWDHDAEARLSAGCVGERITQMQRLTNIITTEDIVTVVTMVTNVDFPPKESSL

[43] = tested on: Epidermal growth factor receptor (Homo sapiens), P00533 [UNDEFINED MUTATION]; conditions: Compound concentration 1000.0 nM
[44] = target: Mitogen-activated protein kinase 3 (Homo sapiens) (UniProt P27361); conditions: Compound concentration 1000.0 nM
[45] = tested on: Mast/stem cell growth factor receptor Kit (Homo sapiens), P10721 [A829P]; conditions: Compound concentration 1000.0 nM

CS(=O)(=O)NCC[C@H](NC(=O)c1cncc2c1cnn2-c1ccc(F)cc1)c1ccnc(S(C)(=O)=O)c1 [BI 9307]
inactive: residual activity [1] 83% | residual activity [2] 100% | residual activity [3] 73% | residual activity [4] 84% | residual activity [5] 76% | residual activity [6] 88% | residual activity [7] 94% | residual activity [8] 99% | residual activity [9] 100% | residual activity [10] 98% | residual activity [11] 94% | residual activity [12] 86% | residual activity [13] 99% | residual activity [14] 100% | residual activity [15] 83% | residual activity [16] 95% | residual activity [17] 100% | residual activity [18] 100% | residual activity [19] 95% | residual activity [20] 98% | inhibition [21] 38.9% | residual activity [22] 78% | residual activity [23] 100% | residual activity [24] 93% | residual activity [25] 93% | residual activity [26] 89% | residual activity [27] 93% | residual activity [28] 100% | residual activity [29] 100% | residual activity [30] 77% | residual activity [31] 100% | residual activity [32] 100% | residual activity [33] 100% | residual activity [34] 100% | residual activity [35] 98% | residual activity [36] 100% | residual activity [37] 100% | residual activity [38] 100% | residual activity [39] 100% | residual activity [40] 75% | residual activity [41] 82% | residual activity [42] 81% | residual activity [43] 92% | residual activity [44] 97% | residual activity [45] 83%

CS(=O)(=O)c1cc(C2(NC(=O)c3cncc4c3cnn4-c3ccc(F)cc3)CC2)ccn1 [BI 639667]
inactive: residual activity [1] 100% | residual activity [2] 100% | residual activity [3] 66% | residual activity [4] 89% | residual activity [5] 79% | residual activity [6] 85% | residual activity [7] 91% | residual activity [8] 100% | residual activity [9] 88% | residual activity [10] 95% | residual activity [11] 79% | residual activity [12] 100% | residual activity [13] 100% | residual activity [14] 79% | residual activity [15] 100% | residual activity [16] 100% | residual activity [17] 100% | residual activity [18] 100% | residual activity [19] 100% | residual activity [20] 90% | inhibition [21] 14.5% | residual activity [22] 81% | residual activity [23] 77% | residual activity [24] 100% | residual activity [25] 91% | residual activity [26] 100% | residual activity [27] 99% | residual activity [28] 100% | residual activity [29] 100% | residual activity [30] 100% | residual activity [31] 100% | residual activity [32] 100% | residual activity [33] 100% | residual activity [34] 75% | residual activity [35] 70% | residual activity [36] 100% | residual activity [37] 100% | residual activity [38] 61% | residual activity [39] 64% | residual activity [40] 78% | residual activity [41] 100% | residual activity [42] 98% | residual activity [43] 100% | residual activity [44] 100% | residual activity [45] 100%
